Reference: patent US20260042755A1, “GPR6 INVERSE AGONISTS” (MapLight Therapeutics, Inc., priority 2022, published 2026)

Assays:
GPR6 = biological target: T1, GPR6 (Homo sapiens, UniProt P46095); experiment: GPR6 antagonist functional cAMP assay (LANCE Ultra cAMP TR-FRET, CHO cells stably expressing GPR6); type: cell-based
T1 construct: expressed in transfected cells; host or cells: CHO cells
Description: (§1) Example 56. GPR6 and GPR3 Antagonist Functional cAMP Assay
(§2) CHO cells stably expressing GPR6 or GPR3 receptors were dissociated from cell culture flasks and incubated for 2 h at 37° C. in a 10 cm dish in a humidified incubator. Cells were dissociated, counted to have 1e6 cells/mL (4.5e6 cells needed/384-well plate), washed once in starved media, than in D-PBS and finally suspended in assay buffer (Krebs-Ringer Bicarbonate Buffer with 1800 mg/L glucose, without calcium chloride and sodium bicarbonate (Sigma) in the presence of 0.1% BSA and 150 μM of Ro 20-1724 Phosphodiesterase inhibitor).
(§3) Cells in suspension from above were plated in 384-well white Optiplate (PerkinElmer) at 10,000 cells/well/10 μl, briefly centrifuged prior direct addition of compounds ([…]) in 10 mM DMSO using a Tecan D300e Digital Dispenser, final DMSO in each well was normalized to 0.1%. Cells were incubated in the presence of compounds for 45 min at 37° C. in a humidified incubator.
(§4) To measure cAMP levels, LANCE® Ultra cAMP assay (Perkin Elmer), a homogeneous time-resolved fluorescence resonance energy transfer (TR-FRET) immunoassay was used following manufacturer's recommendations. Plates were shaken for 1 h at room temperature before reading on a Tecan InfiniteF200Pro multi-mode plate reader using standard FRET settings (Excitation 340 nm, Emission at 615 nm). FRET values were reported as readings obtained at 665 nm. Data were normalized to DMSO (0.1%) and reference compounds (100%) and fit to a 4-parameter logistical fit to generate antagonist IC50s.

GPR3 = biological target: T2, GPR3 (Homo sapiens, UniProt P46089); experiment: GPR3 antagonist functional cAMP assay (LANCE Ultra cAMP TR-FRET, CHO cells stably expressing GPR3); type: cell-based
T2 construct: expressed in transfected cells; host or cells: CHO cells
Description: as §1, §2, §3, §4

[1] = CHO cells stably expressing GPR6, cAMP assay (Example 24)
[2] = CHO cells stably expressing GPR3, cAMP assay (Example 24)
[3] = procedure as described in Example 24
[4] = CHO cells stably expressing GPR6, cAMP assay
[5] = CHO cells stably expressing GPR3, cAMP assay

T2 sequence (P46089 whole entry, species assumed): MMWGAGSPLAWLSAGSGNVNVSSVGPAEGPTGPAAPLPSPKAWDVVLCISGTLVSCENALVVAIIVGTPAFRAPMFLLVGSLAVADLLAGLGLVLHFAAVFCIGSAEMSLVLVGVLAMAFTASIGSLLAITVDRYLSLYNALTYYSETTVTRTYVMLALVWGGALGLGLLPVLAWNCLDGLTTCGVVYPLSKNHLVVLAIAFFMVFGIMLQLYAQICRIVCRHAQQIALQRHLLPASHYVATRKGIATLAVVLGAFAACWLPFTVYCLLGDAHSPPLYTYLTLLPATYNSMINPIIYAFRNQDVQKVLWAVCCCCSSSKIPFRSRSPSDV
T1 sequence (P46095 whole entry): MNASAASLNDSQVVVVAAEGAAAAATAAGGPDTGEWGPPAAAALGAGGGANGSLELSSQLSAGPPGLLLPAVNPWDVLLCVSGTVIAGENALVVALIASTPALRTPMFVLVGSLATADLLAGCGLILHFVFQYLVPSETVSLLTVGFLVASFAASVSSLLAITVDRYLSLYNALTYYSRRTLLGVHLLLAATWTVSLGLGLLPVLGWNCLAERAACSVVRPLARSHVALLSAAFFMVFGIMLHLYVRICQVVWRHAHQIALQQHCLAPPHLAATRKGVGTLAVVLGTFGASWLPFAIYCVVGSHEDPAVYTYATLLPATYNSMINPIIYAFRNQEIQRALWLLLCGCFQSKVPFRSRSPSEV

| SMILES | IC50 (GPR3; [2]) [nM] | IC50 (GPR6; procedure of Example 24) [nM] | IC50 (GPR3; procedure of Example 24) [nM] | further results |
| --- | --- | --- | --- | --- |
| Cn1cc(-c2nc3cnc(C(O)CC#N)cc3nc2N2CCC(Oc3ccc(F)cc3F)CC2)cn1 (stereo not drawn) [Compound 402, 3-(2-(4-(2,4-difluorophenoxy)piperidin-1-yl)-3-(1-methyl-1H-pyrazol-4-yl)pyrido[3,4-b]pyrazin-7-yl)-3-hydroxypropanenitrile] | 1000 to 30000 | – | – | IC50 (GPR6; [1]): 1000 to 30000 nM |
| CC(=O)OC1CCCN(c2nc3c(nc2-c2cnn(C)c2)CN(Cc2ccccc2)CC3)C1 (stereo not drawn) [Compound 278, 1-[6-benzyl-3-(1-methyl-1H-pyrazol-4-yl)-5H,6H,7H,8H-pyrido[3,4-b]pyrazin-2-yl]piperidin-3-yl acetate] | – | 1000 to 30000 | 1000 to 30000 | – |
| COc1ccc(OC2CCN(c3nc4c(nc3-c3cnn(C)c3)CN(C(C)=O)CC4)CC2)cc1 [Compound 425, 1-{2-[4-(4-methoxyphenoxy)piperidin-1-yl]-3-(1-methyl-1H-pyrazol-4-yl)-5H,6H,7H,8H-pyrido[3,4-b]pyrazin-6-yl}ethan-1-one] | 1000 to 30000 | – | – | IC50 (GPR6; [1]): 1000 to 30000 nM |
| CC(=O)N1CCc2nc(N3CCC(Oc4ccc(F)cc4F)CC3)c(-c3cnn(C)c3)nc2C1 [Compound 44, 1-{2-[4-(2,4-difluorophenoxy)piperidin-1-yl]-3-(1-methyl-1H-pyrazol-4-yl)-5H,6H,7H,8H-pyrido[3,4-b]pyrazin-6-yl}ethan-1-one] | – | – | – | IC50 (GPR6; [3]): 100 to 1000 nM; IC50 (GPR3; [3]): 1000 to 30000 nM |
| Cn1cc(-c2nc3cnc(OC4COC4)cc3nc2N2CCC(Oc3ccc(F)cc3F)CC2)cn1 [Compound 382, 4-(2,4-difluorophenoxy)-1-[3-(1-methyl-1H-pyrazol-4-yl)-7-(oxetan-3-yloxy)pyrido[3,4-b]pyrazin-2-yl]piperidine] | 1000 to 30000 | – | – | IC50 (GPR6; [1]): 100 to 1000 nM |
| Fc1ccc(OC2CC=C(c3nc4cnccc4nc3-c3ncco3)CC2)c(F)c1 (stereo not drawn) [Compound 304, 2-{3-[4-(2,4-difluorophenoxy)cyclohex-1-en-1-yl]pyrido[3,4-b]pyrazin-2-yl}-1,3-oxazole] | – | 1000 to 30000 | ≥ 30000 | – |
| COc1ccc(C(=O)N2CCN(c3nc4c(nc3-c3cnn(C)c3)CN(C(C)=O)CC4)CC2)cc1F [Compound 282, 1-{2-[4-(3-fluoro-4-methoxybenzoyl)piperazin-1-yl]-3-(1-methyl-1H-pyrazol-4-yl)-5H,6H,7H,8H-pyrido[3,4-b]pyrazin-6-yl}ethan-1-one] | – | ≥ 30000 | ≥ 30000 | – |
| CC(=O)N1CCc2nc(N3CCC(Oc4ccc(F)cc4F)CC3)c(-c3ncco3)nc2C1 [Compound 18, 1-{2-[4-(2,4-difluorophenoxy)piperidin-1-yl]-3-(1,3-oxazol-2-yl)-5H,6H,7H,8H-pyrido[3,4-b]pyrazin-6-yl}ethan-1-one] | – | – | – | IC50 (GPR6; [3]): 1000 to 30000 nM; IC50 (GPR3; [3]): 100 to 1000 nM |
| CC(=O)N1CCc2nc(N3CCC(=Cc4ccccc4)CC3)c(-c3cnn(C)c3)nc2C1 [Compound 646, 1-[2-(4-benzylidene-1-piperidyl)-3-(1-methyl-4-pyrazolyl)-5,6,7,8-tetrahydro-1,4,6-triaza-6-naphthyl]-1-ethanone] | – | 100 to 1000 | 1000 to 30000 | – |
| Fc1ccc(OC2CCN(c3nc4cnccc4nc3-c3cn[nH]c3)CC2)c(F)c1 [Compound 100, 4-(2,4-difluorophenoxy)-1-[2-(1H-pyrazol-4-yl)pyrido[3,4-b]pyrazin-3-yl]piperidine] | 1000 to 30000 | – | – | IC50 (GPR6; [1]): 100 to 1000 nM |
| COc1ccc(OC2CCN(c3nc4c(nc3-c3cnn(C)c3)CN(C(C)=O)CC4)CC2)c(F)c1 [Compound 452, 1-{2-[4-(2-fluoro-4-methoxyphenoxy)piperidin-1-yl]-3-(1-methyl-1H-pyrazol-4-yl)-5H,6H,7H,8H-pyrido[3,4-b]pyrazin-6-yl}ethan-1-one] | 1000 to 30000 | – | – | IC50 (GPR6; [1]): 100 to 1000 nM |
| Cn1cc(-c2nc3cnc([C@@](C)(O)CO)cc3nc2N2CCC(Oc3ccc(F)cc3F)CC2)cn1 (single isomer, unassigned) [Compound 564] | – | – | – | IC50 (GPR6; [4]): 100 to 1000 nM; IC50 (GPR3; [5]): 1000 to 30000 nM |
| CC(C)(O)C(C)(O)c1cc2nc(-c3cnn(CF)c3)c(N3CCC(Oc4ccc(F)cc4F)CC3)nc2cn1 (single isomer, unassigned) [Compound 782] | – | 100 to 1000 | 1000 to 30000 | – |
| CO[C@@H](CO)c1cc2nc(N3CCC(Oc4ccc(F)cc4F)CC3)c(-c3cnn(C)c3)nc2cn1 (single isomer, unassigned) [Compound 640] | – | 100 to 1000 | 1000 to 30000 | – |
| CC(=O)N1CCc2nc(N3CCN(Cc4ccc(F)cc4F)CC3)c(-c3cnn(C)c3)nc2C1 [Compound 352, 1-(2-{4-[(2,4-difluorophenyl)methyl]piperazin-1-yl}-3-(1-methyl-1H-pyrazol-4-yl)-5H,6H,7H,8H-pyrido[3,4-b]pyrazin-6-yl)ethan-1-one] | – | 100 to 1000 | 1000 to 30000 | – |
| CC(C)(O)[C@@H](O)c1cc2nc(N3CCN(Cc4ccccc4F)CC3)c(-c3cnn(CF)c3)nc2cn1 (single isomer, unassigned) [Compound 647] | – | < 100 | 1000 to 30000 | – |
| CC(=O)N1CCc2nc(N3CCC(Oc4ccc(F)cc4F)CC3)c(-c3cccc(C)n3)nc2C1 [Compound 68, 1-{2-[4-(2,4-difluorophenoxy)piperidin-1-yl]-3-(6-methylpyridin-2-yl)-5H,6H,7H,8H-pyrido[3,4-b]pyrazin-6-yl}ethan-1-one] | 1000 to 30000 | – | – | IC50 (GPR6; [1]): 100 to 1000 nM |
| CC(C)(O)C(O)c1ncc2nc(-c3cnn(CF)c3)c(N3CCN(Cc4ccc(F)cc4F)CC3)nc2c1F (racemic) [Compound 797, 1-(2-{4-[(2,4-difluorophenyl)methyl]-1-piperazinyl}-8-fluoro-3-[1-(fluoromethyl)-4-pyrazolyl]-1,4,6-triaza-7-naphthyl)-2-methyl-1,2-propanediol] | – | 100 to 1000 | 1000 to 30000 | – |
| CC(=O)N1CCc2nc(N3CCC(C(F)c4ccc(F)cc4F)CC3)c(-c3cnn(C)c3)nc2C1 (stereo not drawn) [Compound 557, 1-(2-{4-[(2,4-difluorophenyl)fluoromethyl]-1-piperidyl}-3-(1-methyl-4-pyrazolyl)-5,6,7,8-tetrahydro-1,4,6-triaza-6-naphthyl)-1-ethanone] | – | – | – | IC50 (GPR6; [4]): < 100 nM; IC50 (GPR3; [5]): < 100 nM |
| COc1nccc(-c2nc3c(nc2N2CCC(Oc4ccc(F)cc4F)CC2)CCN(C(C)=O)C3)n1 [Compound 111, 1-{2-[4-(2,4-difluorophenoxy)piperidin-1-yl]-3-(2-methoxypyrimidin-4-yl)-5H,6H,7H,8H-pyrido[3,4-b]pyrazin-6-yl}ethan-1-one] | 100 to 1000 | – | – | IC50 (GPR6; [1]): 100 to 1000 nM |
| Cn1cc(-c2nc3cnc(C4CC4CO)cc3nc2N2CCC(Oc3ccc(F)cc3F)CC2)cn1 (stereo not drawn) [Compound 768, (2-{2-[4-(2,4-difluorophenoxy)-1-piperidyl]-3-(1-methyl-4-pyrazolyl)-1,4,6-triaza-7-naphthyl}cyclopropyl)methanol] | – | 1000 to 30000 | 1000 to 30000 | – |
| CC(=O)OC1CCN(c2nc3c(nc2-c2cnn(C)c2)CN(C(C)=O)CC3)C1 (stereo not drawn) [Compound 315, 1-[6-acetyl-3-(1-methyl-1H-pyrazol-4-yl)-5H,6H,7H,8H-pyrido[3,4-b]pyrazin-2-yl]pyrrolidin-3-yl acetate] | – | ≥ 30000 | 100 to 1000 | – |
| CNC(=O)c1cc2nc(N3CCC(Oc4ccc(F)cc4F)CC3)c(-c3cncc(OC)n3)nc2cn1 [Compound 222, 2-[4-(2,4-difluorophenoxy)piperidin-1-yl]-3-(6-methoxypyrazin-2-yl)-N-methylpyrido[3,4-b]pyrazine-7-carboxamide] | 1000 to 30000 | – | – | IC50 (GPR6; [1]): 1000 to 30000 nM |
| CC(C)(O)[C@H](O)c1cc2nc(N3CCN(Cc4ccccc4F)CC3)c(-c3cnn(C(F)F)c3)nc2cn1 (single isomer, unassigned) [Compound 612] | – | 100 to 1000 | 1000 to 30000 | – |
| Fc1ccc(OC2CCN(c3nc4ccncc4nc3-c3cn[nH]c3)CC2)c(F)c1 [Compound 9, 4-(2,4-difluorophenoxy)-1-[3-(1H-pyrazol-4-yl)pyrido[3,4-b]pyrazin-2-yl]piperidine] | – | – | – | IC50 (GPR6; [3]): 100 to 1000 nM; IC50 (GPR3; [3]): 100 to 1000 nM |
| CC(C)(O)C(O)c1cc2nc(-c3cnn(CF)c3)c(N3CCN(Cc4ccc(F)cc4F)CC3)nc2cn1 (single isomer, unassigned) [Compound 603] | – | – | – | IC50 (GPR6; [4]): < 100 nM; IC50 (GPR3; [5]): 1000 to 30000 nM |
| CCn1cc(-c2nc3c(nc2N2CCC(Oc4ccc(F)cc4F)CC2)CCN(C[C@H](O)CO)C3)cn1 [Compound 305, (2S)-3-{2-[4-(2,4-difluorophenoxy)piperidin-1-yl]-3-(1-ethyl-1H-pyrazol-4-yl)-5H,6H,7H,8H-pyrido[3,4-b]pyrazin-6-yl}propane-1,2-diol] | – | 100 to 1000 | 1000 to 30000 | – |
| CC(C)(O)[C@](C)(O)c1cc2nc(N3CCN(Cc4ccc(F)cc4F)CC3)c(-c3cnn(C(F)F)c3)nc2cn1 (single isomer, unassigned) [Compound 694] | – | 100 to 1000 | 1000 to 30000 | – |
| COc1nc(-c2nc3c(nc2N2CCC(Oc4ccc(F)cc4F)CC2)CCN(C(C)=O)C3)ccc1F [Compound 83, 1-{2-[4-(2,4-difluorophenoxy)piperidin-1-yl]-3-(5-fluoro-6-methoxypyridin-2-yl)-5H,6H,7H,8H-pyrido[3,4-b]pyrazin-6-yl}ethan-1-one] | 1000 to 30000 | – | – | – |
